{"source": "patent US20260258025A1", "about": "“INHIBITORS OF TDP-43 AND TAU AGGREGATION” (Aquinnah Pharmaceuticals, inc., priority 2023, published 2026)", "tested_on": "tau stress granules", "assay": "SY5Y-tT1 tau arsenite assay (tau stress granules per cell)", "assay_type": "cell-based", "settings": "SY5Y-tT1 cells, 2 hours compound, 90 minutes arsenite, 50% reduction of granules per cell, read-out: IC50, Inhibitor Activity of Tau Stress Granules", "how_it_was_run": "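SY5Y-tT1 cells were tetracycline-induced for 48 h, pretreated 2 h with serially diluted compounds (PERK inhibitor GSK2606414 as control), then exposed to arsenite for 90 min at 37° C. After fixation and Hoechst staining, tau stress granules per cell were imaged; IC50 is the concentration halving granules per cell.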", "data": [{"smiles": "Cc1cc(-c2ccc(C3CCN(C(C)C)CC3)cc2)sc1C(=O)N1CC[C@H](N)C1", "note": "[Compound 183, (S)-(3-aminopyrrolidin-1-yl)(5-(4-(1-isopropylpiperidin-4-yl)phenyl)-3-methylthiophen-2-yl)methanone]", "values": [{"measurement": "IC50", "value": "< 500", "unit": "nM"}]}]}
